Assay [1] deals with HeLa cells. Put plainly: Apoptosis induction in HeLa cells, FACS analysis (Annexin V/PI). In kind it is cell-based, human. Particulars: HeLa cells expressing wild-type K-Ras, 24 hours after addition; FIGS. 6A, 7A. On the procedure: (§1) In Example 7, apoptosis induction in a case where TUS-007, Ras-SOS, or Ras-SOS-NH2 was added to HeLa cells or SW1990 cells (human pancreatic cancer cells) had been added was evaluated by the FACS analysis. It is noted that in HeLa cells, the wild-type K-Ras protein (K-Ras-WT) is expressed, and in SW1990 cells, the G12D mutant K-Ras protein (K-Ras-G12D) is expressed.
(§2) HeLa cells or SW1990 cells were seeded in a 24-well plate at a cell density of 8×10^4 cells/well, and then cultured under conditions of 37° C. and 5 vol % CO2 for 16 hours.
(§3) After 16 hours from cell seeding, TUS-007, Ras-SOS, or Ras-SOS-NH2 were added to HeLa cells or SW1990 cells as follows. As a medium, a serum-free medium (37° C.) in which 1 mass % L-glutamine solution (Sigma-Aldrich) was added to D-MEM (high D-glucose, phenol red, sodium pyruvate (Wako Pure Chemical Industries, Ltd.)) was used. It is noted that the L-glutamine solution was added immediately before use. A DMSO solution containing TUS-007, Ras-SOS, or Ras-SOS-NH2 was mixed with the medium so that the concentration of DMSO was 1 vol %, and added to each well at 500 μL/well, and cultured under conditions of 37° C. and 5 vol % CO2. As a control, DMSO was used.
(§4) The medium was removed 24 hours after addition of TUS-007, Ras-SOS, or Ras-SOS-NH2, and then PBS was added to wash the cells. After removing PBS, trypsin (0.25 w/v % trypsin-1 mmol/L EDTA⋅4 Na solution with phenol red) (Wako Pure Chemical Industries, Ltd.) at 37° C. was added to each well at 200 μL/well, and cultured under conditions of 37° C. and 5 vol % CO2 for 1 minute. […]
(§5) A BD FACSCanto™ II (BD Biosciences) was used for flow cytometry. […] The proportion of Annexin V-positive and PI-negative cells was calculated using an analysis software FlowJo™ (TOMY Digital Biology Co., Ltd.), and the proportion was defined as a proportion of apoptosis cells.
(§6) In Example 8, apoptosis induction in a case where TUS-007, Ras-SOS-NH2, or erlotinib as an anticancer agent (EGFR inhibitor) was added to HeLa cells or SW1990 cells was evaluated by FACS analysis as in Example 7.
A general note: A flow cytometer gives signals particle by particle.

Assay [2] deals with SW1990 cells. Put plainly: Apoptosis induction in SW1990 cells, FACS analysis (Annexin V/PI). In kind it is cell-based, human. Particulars: SW1990 cells expressing G12D mutant K-Ras, 24 hours after addition; FIGS. 6B, 7B. On the procedure:
as §1, §2, §3, §4, §5, §6

Assay [3] concerns interaction between the Ras protein and the SOS protein. Particulars: known from Sun, Q. et al.; cited from earlier work.
The target of assay [4] is T1, endogenous wild-type K-Ras protein (Mus musculus, UniProt P32883).
T1 construct: an endogenous wild-type K-Ras protein and wild-type H-Ras protein; from tissue; host or cells: mouse pancreas and colon
As to the kind of experiment: Degradation of endogenous wild-type K-Ras protein in mouse pancreas and colorectal tissue, Western blot analysis. In kind it is in vivo. Particulars: C57BL/6J mice, intraperitoneal, TUS-007 40 or 80 mg/kg, Ras-SOS 80 mg/kg, 48 hours; pancreas and colon; FIG. 8. How it is done:
(§7) In Example 9, in a mouse individual to which TUS-007 had been administered, the degradation (knockdown) of an endogenous wild-type K-Ras protein and wild-type H-Ras protein was evaluated by Western blot analysis.
(§8) TUS-007 was dissolved in DMSO, and then dissolved in corn oil so that the concentration of DMSO was 10 vol %, and then intraperitoneally administered to C57BL/6J wild-type mice (8 to 9 weeks old, male) (CLEA Japan, Inc.) in an amount of 40 mg/kg body weight or 80 mg/kg body weight (n=3 to 4). Furthermore, in addition to a group in which TUS-007 was administered, a group in which Ras-SOS had been administered in a dose of 80 mg/kg body weight was prepared. As a control, an injection carrier (corn oil containing 10 vol % DMSO) was used. The mice were kept under an environment of ad libitum access to food and water. The mice were dissected under deep anesthesia 48 hours after administration. The pancreas and colon were excised, and flash frozen in liquid nitrogen.
(§9) The frozen pancreas and colon were each triturated, and then TKM tissue lysis buffer (50 mM triethanolamine (pH 7.8), 50 mM KCl, 5 mM MgCl2, 0.25 M sucrose, 1 mM PMSF, Protein Inhibitors Cocktail-EDTA free (Nacalai Tesque, Inc.), 1 mM DTT, and a recombinant RNase inhibitor (0.2 U/μL, Takara Bio) were added, and subjected to centrifugation (at 13800 rpm×30 minutes, 4° C.), and the supernatants (pancreatic tissue extract and colorectal tissue extract) were collected. The concentration of the extracted proteins was quantified with a spectrophotometer.
(§10) Each tissue extract collected was subjected to Western blot analysis. […]
(§11) After electrophoresis, proteins were transferred to a PVDF membrane (Immobion™-P, Millipore) under conditions of 200 mA and 90 minutes using a tank-type blotting device and a transfer buffer (25 mM Tris-HCl, 195 mM glycine, 0.01% SDS, 15% methanol). […] Subsequently, the membrane was treated with a chemiluminescence reagent Immobilon™ Western (Millipore), and then chemiluminescence was detected using a lumino image analyzer LAS-3000 (FUJIFILM Corporation).
Background: In western blotting, separated proteins are transferred to a membrane and probed.

Assay [5] concerns the target T2, endogenous wild-type H-Ras protein (Mus musculus, UniProt Q61411).
T2 construct: an endogenous wild-type K-Ras protein and wild-type H-Ras protein; from tissue; host or cells: mouse pancreas and colon
As to the kind of experiment: Degradation of endogenous wild-type H-Ras protein in mouse pancreas and colorectal tissue, Western blot analysis. In kind it is in vivo. The conditions noted are these: C57BL/6J mice, intraperitoneal, TUS-007 40 or 80 mg/kg, Ras-SOS 80 mg/kg, 48 hours; pancreas and colon; FIG. 8. How it is done:
as §7, §8, §9, §10, §11

Assay [6] has as its system K-Ras protein. Particulars: known from Sun, Q. et al.; cited from earlier work.
For assay [7], the target named is T3, catalytic subunit β5 of the proteasome (Homo sapiens, UniProt P28074).
T3 construct: purchased Bioscience (so in the source) 20S Proteasome StressXpress Assay Kit Gold
Put plainly: Proteasome inhibitory activity, 20S proteasome β5 (chymotrypsin-like activity). The conditions noted are these: 20S proteasome assay kit, AMC fluorescence substrate; FIGS. 10C, 13C. In kind it is biochemical. How it is done:
(§12) In Reference Example 2, the proteasome inhibitory activity of TMP-CANDDY_DMT and the affinity of TMP-CANDDY_DMT with a proteasome were evaluated. As a positive control, MG-132 as a proteasome inhibitor was used.
(§13) For evaluation, 20S Proteasome StressXpress™ Assay Kit Gold (Bioscience) was used. AMC was measured by using Multi-Detection Microplate Reader (Synergy HT, BIO-TEK). The AMC was produced by cleaving the C-terminus of an AMC-binding proteasome fluorescence substrate specific to β subunits of a 20S proteasome, including β5 (chymotrypsin-like activity), β2 (trypsin-like activity), and β1 (caspase-like activity). The measuring wavelengths were 360 nm for excitation light (Ex.), and 460 nm for fluorescence (Em.).
(§14) In Reference Example 6, as in Reference Example 2, a proteasome inhibitory activity of TMP-CANDDY_ALLN and an affinity of TMP-CANDDY_ALLN with a proteasome were evaluated.

In assay [8] the target is T4, catalytic subunit β1 of a proteasome (Homo sapiens, UniProt P28072).
T4 construct: purchased Bioscience (so in the source) 20S Proteasome StressXpress Assay Kit Gold
As to the kind of experiment: Proteasome inhibitory activity, 20S proteasome β1 (caspase-like activity). In kind it is biochemical. Particulars: 20S proteasome assay kit, AMC fluorescence substrate; FIGS. 10A, 13A. On the procedure:
as §12, §13, §14

In assay [9] the target is T5, ecDHFR protein (Escherichia coli, UniProt P0ABQ4).
T5 construct: expressed in transfected cells; host or cells: HeLa
In kind it is cell-based, human. The conditions noted are these: HeLa cells, 24 hours after addition, vs control (DMSO); FIGS. 11, 14.

Assay [10] concerns the target T6, catalytic subunit β2 of the proteasome (Homo sapiens, UniProt Q99436).
T6 construct: purchased Bioscience (so in the source) 20S Proteasome StressXpress Assay Kit Gold
As to the kind of experiment: Proteasome inhibitory activity, 20S proteasome β2 (trypsin-like activity). In kind it is biochemical. Particulars: 20S proteasome assay kit, AMC fluorescence substrate; FIGS. 10B, 13B. On the procedure:
as §12, §13, §14

For assay [11], the target named is T5, ecDHFR protein. Type of assay: cell-based, human. The conditions noted are these: HeLa cells, FIGS. 12A, 12B.
Assay [12] deals with T4, catalytic subunit β1 of a proteasome. Particulars: literature report, consistent with FIG. 13A; cited from earlier work.

Where a SMILES comes first, the peptide text is derived from it. [ ]: non-standard residue; d: D form. Nle = CCCC[C@H](N)C(=O)O

`C#Cc1cccc(Nc2ncnc3cc(OCCOC)c(OCCOC)cc23)c1` [erlotinib]: the figures for the “apoptosis induction (proportion of Annexin V-positive and PI-negative cells)” value in assay [1] and in assay [2] were “apoptosis was induced in a concentration-dependent manner” and “the effect of the apoptosis induction by erlotinib was largely reduced”, respectively.

As for `CC[C@H](C)[C@H](N)C(=O)Nc1ccc2[nH]c(Cc3c[nH]c4ccccc34)nc2c1` [Ras-SOS], the “inhibition of the interaction between the Ras protein and the SOS protein” value in assay [3] was “inhibit the interaction between the Ras protein and the SOS protein”. Also, in assay [4], the “amount of the endogenous wild-type K-Ras protein in mouse tissues (Western blot)” value is “the amount of the wild-type K-Ras protein and the wild-type H-Ras protein was not reduced”. In assay [5], the “amount of the endogenous wild-type H-Ras protein in mouse tissues (Western blot)” value is “the amount of the wild-type K-Ras protein and the wild-type H-Ras protein was not reduced”. In addition, the “apoptosis induction (proportion of Annexin V-positive and PI-negative cells)” value in [1] is given as “apoptosis was induced in a concentration-dependent manner”; in assay [2] it was “the effect of the apoptosis induction by Ras-SOS was largely reduced”. Moreover, in [6], the “binding to K-Ras protein (wild-type, G12D mutant, G12V mutant)” value was “bound to not only a wild-type K-Ras protein but also a G12D mutant and a G12V mutant K-Ras protein”.

For the molecule `CCCC[C@H](NC(=O)[C@H](CC(C)C)NC(=O)[C@H](CC(C)C)NC(C)=O)C(=O)NCCCCCCNC(=O)COc1c(OC)cc(Cc2cnc(N)nc2N)cc1OC` [TMP-CANDDY_ALLN], the “inhibitory activity against proteasome β5 (chymotrypsin-like activity)” value in assay [7] is “the inhibitory activity was weakened”. The “inhibitory activity against proteasome β1 (caspase-like activity)” value in [8] is “increased against any of β1, β2, and β5 in a concentration dependent manner”. Further, the “degradation (knockdown) of the ecDHFR protein (shift of GFP/DsRed ratio graph)” value in [9] is “degradation of the ecDHFR protein was induced”. The “inhibitory activity against proteasome β2 (trypsin-like activity)” value in [10] is “the inhibitory activity was weakened”.

Turning to `COc1nc(NCCCCCCNC(=O)COc2c(OC)cc(Cc3cnc(N)nc3N)cc2OC)nc(OC)n1` [TMP-CANDDY_DMT], the “inhibitory activity against proteasome β5 (chymotrypsin-like activity)” value in [7] is “significantly lower proteasome inhibitory activity as compared with MG-132”. For the same molecule, the “amount of the ecDHFR protein (Western blot)” value in assay [11] (24 hours after addition, cycloheximide 50 μg/mL at 12 hours) is on record as “the amount of the ecDHFR protein was reduced”. Also, the “degradation of the ecDHFR protein when both TMP-CANDDY_DMT and bortezomib were added” value in assay [11] (bortezomib co-added, compared with TMP-CANDDY_DMT alone) is “degradation of the ecDHFR protein was inhibited”. Besides, the “inhibitory activity against proteasome β1 (caspase-like activity)” value in [8] was “significantly lower proteasome inhibitory activity as compared with MG-132”. The “degradation (knockdown) of the ecDHFR protein (shift of GFP/DsRed ratio graph)” value in assay [9] is recorded as “degradation of the ecDHFR protein was induced”. Moreover, in [10], the “inhibitory activity against proteasome β2 (trypsin-like activity)” value was “significantly lower proteasome inhibitory activity as compared with MG-132”.

For the molecule `CCCC[C@@H](C=O)NC(=O)[C@H](CC(C)C)NC(=O)[C@H](CC(C)C)NC(C)=O` [ALLN] (Ac-Leu-Leu-[Nle]-aldehyde), in [12], the “inhibition of proteasome β1 as reported (Kaiser, M. et al.)” value is recorded as “β1 was not inhibited by ALLN”.
